Reference: PubChem BioAssay (NCI)
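How tested: cells in 96-well plates exposed to compound for 48 hours at five concentrations. TGI is the concentration that stops growth completely.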

How the values were obtained:
Test in all cases: NCI-60 cell line screen, 48 h
SR leukemia = test system: SR leukemia
HCT-15 colon = test system: HCT-15 colon
HL-60(TB) leukemia = test system: HL-60(TB) leukemia
U251 CNS = test system: U251 CNS
COLO 205 colon = test system: COLO 205 colon
SNB-75 CNS = test system: SNB-75 CNS
ACHN renal = test system: ACHN renal
OVCAR-5 ovarian = test system: OVCAR-5 ovarian
HT29 colon = test system: HT29 colon
UACC-257 melanoma = test system: UACC-257 melanoma
MCF7 breast = test system: MCF7 breast
SF-539 CNS = test system: SF-539 CNS
UACC-62 melanoma = test system: UACC-62 melanoma
MALME-3M melanoma = test system: MALME-3M melanoma
EKVX NSCLC = test system: EKVX NSCLC
SF-268 CNS = test system: SF-268 CNS
NCI-H460 lung = test system: NCI-H460 lung
RPMI-8226 leukemia = test system: RPMI-8226 leukemia
HS 578T breast = test system: HS 578T breast
OVCAR-4 ovarian = test system: OVCAR-4 ovarian
SK-MEL-5 melanoma = test system: SK-MEL-5 melanoma
OVCAR-3 ovarian = test system: OVCAR-3 ovarian
A498 renal = test system: A498 renal
PC-3 prostate = test system: PC-3 prostate
SK-MEL-28 melanoma = test system: SK-MEL-28 melanoma
MDA-MB-435 = test system: MDA-MB-435
A549 NSCLC = test system: A549 NSCLC
DU-145 prostate = test system: DU-145 prostate
T-47D breast = test system: T-47D breast
NCI/ADR-RES ovarian = test system: NCI/ADR-RES ovarian
NCI-H522 lung = test system: NCI-H522 lung
IGROV1 ovarian = test system: IGROV1 ovarian
SK-MEL-2 melanoma = test system: SK-MEL-2 melanoma
HOP-92 NSCLC = test system: HOP-92 NSCLC
UO-31 renal = test system: UO-31 renal
HCT-116 colon = test system: HCT-116 colon
NCI-H23 lung = test system: NCI-H23 lung
HCC-2998 colon = test system: HCC-2998 colon
KM12 colon = test system: KM12 colon
SW-620 colon = test system: SW-620 colon
SN12C renal = test system: SN12C renal
TK-10 renal = test system: TK-10 renal
SF-295 CNS = test system: SF-295 CNS
MDA-MB-231 breast = test system: MDA-MB-231 breast
SNB-19 CNS = test system: SNB-19 CNS
MDA-N = test system: MDA-N
OVCAR-8 ovarian = test system: OVCAR-8 ovarian
CCRF-CEM leukemia = test system: CCRF-CEM leukemia
786-0 renal = test system: 786-0 renal
MOLT-4 leukemia = test system: MOLT-4 leukemia
BT-549 breast = test system: BT-549 breast
M14 melanoma = test system: M14 melanoma
LOX IMVI melanoma = test system: LOX IMVI melanoma
CAKI-1 renal = test system: CAKI-1 renal
HOP-62 NSCLC = test system: HOP-62 NSCLC
K-562 leukemia = test system: K-562 leukemia
SK-OV-3 ovarian = test system: SK-OV-3 ovarian
RXF 393 renal = test system: RXF 393 renal

CCOC(=O)C1(C(=O)OCC)CC(=O)[C@@]2(C1)OCC[C@H]1OC(=O)C[C@H]12 was tested, and the TGI (SR leukemia) was greater than 100 µM, the TGI (HCT-15 colon) was greater than 100 µM and the TGI (HL-60(TB) leukemia) was greater than 100 µM. The TGI (U251 CNS) was greater than 100 µM, the TGI (COLO 205 colon) was greater than 100 µM and the TGI (SNB-75 CNS) was greater than 100 µM. It also gave a TGI (ACHN renal) greater than 100 µM, a TGI (OVCAR-5 ovarian) greater than 100 µM and a TGI (HT29 colon) greater than 100 µM. For the same compound, the TGI (UACC-257 melanoma) was greater than 100 µM, the TGI (MCF7 breast) was greater than 100 µM and the TGI (SF-539 CNS) was greater than 100 µM. For the same compound, the TGI (UACC-62 melanoma) was greater than 100 µM, the TGI (MALME-3M melanoma) was greater than 100 µM and the TGI (EKVX NSCLC) was greater than 100 µM. For the same compound, the TGI (SF-268 CNS) was greater than 100 µM, the TGI (NCI-H460 lung) was greater than 100 µM and the TGI (RPMI-8226 leukemia) was greater than 100 µM. It also gave a TGI (HS 578T breast) greater than 100 µM, a TGI (OVCAR-4 ovarian) greater than 100 µM and a TGI (SK-MEL-5 melanoma) greater than 100 µM. It also gave a TGI (OVCAR-3 ovarian) greater than 100 µM, a TGI (A498 renal) greater than 100 µM and a TGI (PC-3 prostate) greater than 100 µM. The TGI (SK-MEL-28 melanoma) was greater than 100 µM, the TGI (MDA-MB-435) was greater than 100 µM and the TGI (A549 NSCLC) was greater than 100 µM. For the same compound, the TGI (DU-145 prostate) was greater than 100 µM, the TGI (T-47D breast) was greater than 100 µM and the TGI (NCI/ADR-RES ovarian) was greater than 100 µM. The TGI (NCI-H522 lung) was greater than 100 µM, the TGI (IGROV1 ovarian) was greater than 100 µM and the TGI (SK-MEL-2 melanoma) was greater than 100 µM. The TGI (HOP-92 NSCLC) was greater than 100 µM, the TGI (UO-31 renal) was greater than 100 µM and the TGI (HCT-116 colon) was greater than 100 µM. For the same compound, the TGI (NCI-H23 lung) was greater than 100 µM, the TGI (HCC-2998 colon) was greater than 100 µM and the TGI (KM12 colon) was greater than 100 µM. The TGI (SW-620 colon) was greater than 100 µM, the TGI (SN12C renal) was greater than 100 µM and the TGI (TK-10 renal) was greater than 100 µM. It also gave a TGI (SF-295 CNS) greater than 100 µM, a TGI (MDA-MB-231 breast) greater than 100 µM and a TGI (SNB-19 CNS) greater than 100 µM. The TGI (MDA-N) was greater than 100 µM, the TGI (OVCAR-8 ovarian) was greater than 100 µM and the TGI (CCRF-CEM leukemia) was greater than 100 µM. The TGI (786-0 renal) was greater than 100 µM, the TGI (MOLT-4 leukemia) was greater than 100 µM and the TGI (BT-549 breast) was greater than 100 µM. The TGI (M14 melanoma) was greater than 100 µM, the TGI (LOX IMVI melanoma) was greater than 100 µM and the TGI (CAKI-1 renal) was greater than 100 µM. It also gave a TGI (HOP-62 NSCLC) greater than 100 µM.

Work on COc1ccc(-n2c3c(c4c(CN(C)C)c(O)ccc42)C(=O)c2ccccc2C3=O)cc1 yielded a TGI (K-562 leukemia) of 4.62 µM, a TGI (SR leukemia) of 6.84 µM and a TGI (HCT-15 colon) of 10.5 µM. The TGI (HL-60(TB) leukemia) was 19.5 µM, the TGI (U251 CNS) was greater than 100 µM and the TGI (COLO 205 colon) was 20.7 µM. For the same compound, the TGI (ACHN renal) was 3.9 µM, the TGI (OVCAR-5 ovarian) was 17.1 µM and the TGI (HT29 colon) was 6.3 µM. The TGI (UACC-257 melanoma) was 41.2 µM, the TGI (MCF7 breast) was 24.9 µM and the TGI (SF-539 CNS) was 3.89 µM. It also gave a TGI (UACC-62 melanoma) of 15.7 µM, a TGI (MALME-3M melanoma) of 27.1 µM and a TGI (EKVX NSCLC) of 25.4 µM. For the same compound, the TGI (SF-268 CNS) was 44.9 µM, the TGI (NCI-H460 lung) was 26.2 µM and the TGI (RPMI-8226 leukemia) was 4.88 µM. For the same compound, the TGI (HS 578T breast) was greater than 100 µM, the TGI (OVCAR-4 ovarian) was 15.9 µM and the TGI (SK-MEL-5 melanoma) was 5.67 µM. It also gave a TGI (OVCAR-3 ovarian) of 30.8 µM, a TGI (A498 renal) of 8.47 µM and a TGI (PC-3 prostate) of 37.1 µM. It also gave a TGI (SK-MEL-28 melanoma) of 14.7 µM, a TGI (MDA-MB-435) of 30.9 µM and a TGI (A549 NSCLC) of 37.5 µM. For the same compound, the TGI (DU-145 prostate) was 29.2 µM, the TGI (T-47D breast) was 6.99 µM and the TGI (NCI/ADR-RES ovarian) was 26.3 µM. For the same compound, the TGI (NCI-H522 lung) was 30.7 µM, the TGI (IGROV1 ovarian) was 23 µM and the TGI (SK-MEL-2 melanoma) was 45.8 µM. It also gave a TGI (HOP-92 NSCLC) of 44.8 µM, a TGI (UO-31 renal) of 5.11 µM and a TGI (HCT-116 colon) of 3.98 µM. The TGI (NCI-H23 lung) was 29.6 µM, the TGI (HCC-2998 colon) was 5.42 µM and the TGI (KM12 colon) was 10.7 µM. The TGI (SW-620 colon) was 7.53 µM, the TGI (SK-OV-3 ovarian) was 8.01 µM and the TGI (SN12C renal) was 7.15 µM. The TGI (TK-10 renal) was 36.8 µM, the TGI (RXF 393 renal) was 52.2 µM and the TGI (SF-295 CNS) was 33.2 µM. For the same compound, the TGI (MDA-MB-231 breast) was 7.67 µM, the TGI (SNB-19 CNS) was greater than 100 µM and the TGI (MDA-N) was 21.2 µM. The TGI (OVCAR-8 ovarian) was 20.5 µM, the TGI (CCRF-CEM leukemia) was 8.35 µM and the TGI (786-0 renal) was 4.52 µM. For the same compound, the TGI (MOLT-4 leukemia) was greater than 100 µM, the TGI (BT-549 breast) was 35.9 µM and the TGI (M14 melanoma) was 11.8 µM. For the same compound, the TGI (LOX IMVI melanoma) was 7 µM, the TGI (CAKI-1 renal) was 34.5 µM and the TGI (HOP-62 NSCLC) was 4.72 µM.
